Experimental data reported in patent publication US9801973B1, “Peptide having zirconia-binding capacity” (SEOUL NATIONAL UNIVERSITY R&DB FOUNDATION, priority 2015, dated 2017).

Key:
[1] = binding assay using an avidin-biotin complex (binding affinity of zirconia-binding peptide); conditions: biotin-labeled peptide, 100 nM to 1 μM, room temperature 15 hours
Source text: (§1) In order to examine the binding affinities of the peptides synthesized in Example 1 and Comparative Examples 1 and 2, the peptides were labeled with biotin. Each of the synthesized peptide domains was biotinylated using EZ-Link Sulfo-NHS-Biotin (Pierce Biotechnology, USA) according to the manufacturer's instruction, and unbound byproducts were removed by ultrafiltration that is a membrane separation method based on a pressure difference. The molecular weights of the synthesized products were measured by mass spectrometry. The synthesized products were analyzed and purified by reverse phase liquid chromatography. For analysis, a C18 column having a diameter of 4.6 mm was used, and 0.1% TFA/H2O and 0.092% TFA/acetonitrile were flushed onto the column at a rate of 1 ml/min with a gradient of 0-60% for 30 minutes. The wavelength of the UV detector used was 220 nm. For purification, a column having a diameter of 2.2 cm was used, and a flow rate of 20 ml/min and the solvent and detection wavelength as described above were used. Only the biotin-labeled peptide fraction was collected, and concentrated using a rotary evaporator to remove the solvent, followed by freeze-drying.
To measure the binding affinity of the zirconia-binding peptide, a binding assay using an avidin-biotin complex was performed. Specifically, one zirconia disc was placed in each well of a 12-well polystyrene plate, and then blocked with a blocking buffer (0.1 M NaHCO3 (pH 8.6), 5 mg/ml BSA, 0.02% NaN3 (optional), filter sterilize) for at least one hour. Next, the blocking buffer was discarded, and each zirconia disc was strongly washed six times or more with a washing buffer (TBS+0.1% [v/v] Tween-20), after which 200 μl of each of the zirconia-binding peptide Zr-BP (SEQ ID NO: 1) of Example 1 and the peptides Zr-BPC (SEQ ID NO: 2), PL1 (SEQ ID NO: 3) and PL2 (SEQ ID NO: 4) of Comparative Examples 1 and 2, which were biotin-labeled, synthesized, separated and purified in Example 3-1, was dispensed to the surface of each zirconia disc at a concentration ranging from 100 nM to 1 μM. Each zirconia disc was incubated at room temperature for 15 hours, and then washed strongly with a washing buffer, and 200 μl of a 1:500 dilution of ExtrAvidin-peroxidase (Cat. #E2886, Sigma-Aldrich, USA) in a blocking buffer was dispensed to the surface of each zirconia disc. Each zirconia disc was incubated at room temperature for 1 hour, and then washed strongly with a washing buffer, after which 200 μl of a substrate solution (2,2′-AZINO-BIS, Cat. #A3219, Sigma-Aldrich, USA) was dispensed to the surface of each zirconia disc and allowed to react at room temperature for 20 minutes so as to develop color. Each zirconia disc was treated with 200 μl of 1% SDS solution to stop the reaction, and the absorbance at 405 nm was measured.

[2] = binding assay using an avidin-biotin complex (maximum binding amount per zirconia disc)
Source text: as §1
To examine the maximum binding amount of the zirconia-binding peptide Zr-BP (SEQ ID NO: 1) per unit area of the zirconia disc surface, a binding assay using a avidin-biotin complex was performed. Specifically, one zirconia disc was placed in each well of a 12-well polystyrene plate, and then blocked with a blocking buffer (0.1 M NaHCO3 (pH 8.6), 5 mg/ml BSA, 0.02% NaN3 (optional), filter sterilize) for at least one hour. […] Each zirconia disc was treated with 200 μl of 1% SDS solution to stop the reaction, and the absorbance at 405 nm was measured.

Sequence	absorbance value at 405 nm (binding to the zirconia disc surface) ([1]; FIG. 2)	absorbance value at 405 nm (binding to the zirconia disc surface) ([1]; FIG. 1)	maximum amount of zirconia-binding peptide bound to the surface of one zirconia disc ([2]; back-calculation from molecular weight and dispensing amount, disc diameter 15.5 mm)	concentration showing the maximum absorbance value ([2]; biotin-labeled peptide, 100 nM to 40 mM, 200 μl per disc, room temperature 15 hours, FIG. 3)	zirconia-binding peptide fixed per mm^2 of the zirconia disc surface ([2]; per mm^2, disc diameter 15.5 mm)
IGNSFSFPAVYR (PL1)	do not bind to the zirconia disc surface	–	–	–	–
LRLDVDRAISLL (PL2)	do not bind to the zirconia disc surface	–	–	–	–
VSAAGTKASPAV (Zr-BPC)	–	binding affinity thereof is reduced	–	–	–
VSPFGTKWSPFV (Zr-BP)	higher than those of the peptides (PL1 and PL2) of Comparative Example 2	higher than that of the peptide Zr-BPC of Comparative Example 1	622.8 µg	2 mM	about 3.3 μg
